How the values were obtained:
CK1ε = CK1ε (Homo sapiens, UniProt P49674); assay: CK1ε kinase activity assay (Caliper, FAM-labelled polypeptide); assay type: biochemical
Description: The in-vitro assay of inhibitory activity of the compound herein against CK1ε kinase was:
(1) preparation of 1× kinase basic buffer and stop buffer: • 1×kinase basic buffer: 50 mM HEPES, pH 7.5; and 0.0015% Brij-35; • stop buffer: 100 mM HEPES, pH 7.5; 0.015% Brij-35; 0.2% Coating Reagent #3; and 50 mM EDTA.
(2) preparation of the test compound: • a 50× (“n×” represents dilution factor, same hereafter) stock solution of the compound with DMSO (10 mM, DMSO) to obtain stock solution I for use; […] of stock solution I was placed in a 96-well plate, each compound sample was diluted by 5-fold serial dilution till 10 concentrations was obtained while ensuring 10 μl of drug solution in each well; meanwhile, 100 μl of DMSO was used as a blank control group and a negative control group without enzyme substrate; • a separate 96-well plate was prepared, and to 10 μl of the above compound,
90 μl of 1× kinase foundation buffer was added, mixed well for 10 min to obtain a mixture.

OCI-LY10 cells = assay: In-vitro anti-tumor activity, OCI-LY10 cells, CCK-8; assay type: cell-based, human; conditions: Homo sapiens; OCI-LY10, 72h, CCK-8; read-out: IC50
Description: The in-vitro anti-tumor activities of the synthesized compounds were determined using a diffuse large B-cell lymphoma (OCI-LY10) cell strain:
Drug preparation method: The drug was dissolved in DMSO to make a stock solution of 10 mM and diluted in a certain ratio to obtain 7 different concentrations (test concentration: 100×).
In vitro culture of tumor cells: The selected OCI-LY10 cells were incubated with a medium of IMDM+fetal bovine serum in a 5% CO2 cell culture incubator at 37° C., and were passaged when the cell density grew to 70-90% (adherent cells were passaged after digestion with Duck's EDTA) for later experiments as needed. Four thousand cells/200 μl/well were seeded in a 96-well plate and incubated overnight in a 5% CO2 cell incubator at 37° C. Two μl of the compounds were dispensed in each well at final concentrations of […], and incubation was performed together for 72h in a 5% CO2 cell incubator at 37° C. with DMSO (2%) as control. After 72h, 20 μl of CCK-8 solution was added and the plate was placed in a 5% CO2 cell culture incubator at 37° C. for 4h. Wells with the corresponding amounts of cell culture medium and CCK-8 solution but without cells were used as blank controls. The absorbance (OD values) was measured at 450 nm using an enzyme marker, and the obtained data were used to calculate the IC50.

Sequence of CK1ε (P49674 whole entry): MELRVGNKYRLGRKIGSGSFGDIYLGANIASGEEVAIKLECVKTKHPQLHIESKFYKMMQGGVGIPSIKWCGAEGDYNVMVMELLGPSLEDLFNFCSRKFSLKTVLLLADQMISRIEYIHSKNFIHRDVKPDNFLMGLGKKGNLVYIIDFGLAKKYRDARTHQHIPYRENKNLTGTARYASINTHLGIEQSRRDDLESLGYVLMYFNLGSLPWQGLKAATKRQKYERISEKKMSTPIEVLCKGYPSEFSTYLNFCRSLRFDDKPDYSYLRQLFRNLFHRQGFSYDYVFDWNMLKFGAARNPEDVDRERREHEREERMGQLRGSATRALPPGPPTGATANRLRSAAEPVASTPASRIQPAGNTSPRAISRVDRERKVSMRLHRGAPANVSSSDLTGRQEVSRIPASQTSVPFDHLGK

SMILES: CC(C)Oc1ccc(-c2nn([C@H](C)c3nc4ccccc4c(=O)n3-c3ccccc3)c3ncnc(N)c23)c(F)c1F [II-A-2b, (R)-2-(1-(4-amino-3-(2,3-difluoro-4-isopropoxyphenyl)-1H-pyrazolo[3,4-d]pyrimidin-1-yl)ethyl)-3-phenylquinazolin-4(3H)-one]
- IC50 (CK1ε): 450 nM

SMILES: CC(C)Oc1ccc(-c2nn(C(C)c3nc4ccccc4c(=O)n3-c3ccccc3)c3ncnc(N)c23)c(F)c1F (centres unmarked) [II-A-2, 2-(1-(4-amino-3-(2,3-difluoro-4-isopropoxyphenyl)-1H-pyrazolo[3,4-d]pyrimidin-1-yl)ethyl)-3-phenylquinazolin-4(3H)-one]
- IC50 (OCI-LY10 cells): 234 nM
- IC50 (CK1ε): 145 nM
- fold increase of inhibitory activity against CK1ε (CK1ε; compared to compound A): 12 fold

SMILES: COc1ccc(-c2nn(C(C)c3nc4ccc(F)cc4c(=O)n3-c3ccccc3)c3ncnc(N)c23)c(F)c1F (centres unmarked) [II-A-9, 2-(1-(4-amino-3-(2,3-difluoro-4-methoxyphenyl)-1H-pyrazolo[3,4-d]pyrimidin-1-yl)ethyl)-6-fluoro-3-phenylquinazolin-4(3H)-one]
- IC50 (CK1ε): 100 nM

SMILES: COc1cc(F)c(-c2nn(C(C)c3nc4ccccc4c(=O)n3-c3ccccc3)c3ncnc(N)c23)c(F)c1 (centres unmarked) [II-A-12, 2-(1-(4-amino-3-(2,6-difluoro-4-methoxyphenyl)-1H-pyrazolo[3,4-d]pyrimidin-1-yl)ethyl)-3-phenylquinazolin-4(3H)-one]
- IC50 (CK1ε): 202 nM

SMILES: CC(C)Oc1ccc(-c2nn(C(C)c3nc4cccc(F)c4c(=O)n3-c3ccccc3)c3ncnc(N)c23)c(F)c1F (centres unmarked) [II-A-16, 2-(1-(4-amino-3-(2,3-difluoro-4-isopropoxyphenyl)-1H-pyrazolo[3,4-d]pyrimidin-1-yl)ethyl)-5-fluoro-3-phenylquinazolin-4(3H)-one]
- IC50 (CK1ε): 100 nM
- fold increase of inhibitory activity against CK1ε (CK1ε; compared to CUX-031773): 93.6 fold
- fold increase of inhibitory activity against CK1ε (CK1ε; compared to compound D): 12.9 fold

SMILES: COc1ccc(-c2nn([C@@H](C)c3nc4cccc(F)c4c(=O)n3-c3ccccc3)c3ncnc(N)c23)c(F)c1F [II-A-8a, (S)-2-(1-(4-amino-3-(2,3-difluoro-4-methoxyphenyl)-1H-pyrazolo[3,4-d]pyrimidin-1-yl)ethyl)-5-fluoro-3-phenylquinazolin-4(3H)-one]
- IC50 (CK1ε): 60 nM

SMILES: CC(c1nc2ccccc2c(=O)n1-c1ccccc1)n1nc(-c2ccc(OC3CC3)c(F)c2F)c2c(N)ncnc21 (centres unmarked) [II-A-4, 2-(1-(4-amino-3-(4-cyclopropoxy-2,3-difluorophenyl)-1H-pyrazolo[3,4-d]pyrimidin-1-yl)ethyl)-3-phenylquinazolin-4(3H)-one]
- IC50 (CK1ε): 234 nM
- fold increase of inhibitory activity against CK1ε (CK1ε; compared to compound B): 12 fold

SMILES: COc1ccc(-c2nn(C(C)c3nc4cccc(Cl)c4c(=O)n3-c3ccccc3)c3ncnc(N)c23)cc1F (centres unmarked) [Compound C, reference compound]
- IC50 (OCI-LY10 cells): 2700 nM
- IC50 (CK1ε): 701 nM

SMILES: COc1ccc(-c2nn(C(C)c3nc4cccc(F)c4c(=O)n3-c3ccccc3)c3ncnc(N)c23)c(F)c1F (centres unmarked) [II-A-8, 2-(1-(4-amino-3-(2,3-difluoro-4-methoxyphenyl)-1H-pyrazolo[3,4-d]pyrimidin−1-yl)ethyl)-5-fluoro-3-phenylquinazolin-4(3H)-one]
- IC50 (CK1ε): 118 nM

SMILES: COc1ccc(-c2nn(C(C)c3nc4cccc(Cl)c4c(=O)n3-c3cncc(F)c3)c3ncnc(N)c23)c(F)c1F (centres unmarked) [II-B-3, 2-(1-(4-amino-3-(2,3-difluoro-4-methoxyphenyl)-1H-pyrazolo[3,4-d]pyrimidin-1-yl)ethyl)-5-chloro-3-(5-fluoropyridin-3-yl)quinazolin-4(3H)-one]
- IC50 (CK1ε): 89 nM

SMILES: COc1ccc(-c2nn(C(C)c3nc4cccc(Cl)c4c(=O)n3-c3cccnc3)c3ncnc(N)c23)c(F)c1F (centres unmarked) [II-B-2, 2-(1-(4-amino-3-(2,3-difluoro-4-methoxyphenyl)-1H-pyrazolo[3,4-d]pyrimidin-1-yl)ethyl)-5-chloro-3-(pyridin-3-yl)quinazolin-4(3H)-one]
- IC50 (OCI-LY10 cells): 193 nM
- IC50 (CK1ε): 372 nM

SMILES: CC(C)Oc1ccc(-c2nn([C@@H](C)c3nc4ccccc4c(=O)n3-c3ccccc3)c3ncnc(N)c23)c(F)c1F [II-A-2a, (S)-2-(1-(4-amino-3-(2,3-difluoro-4-isopropoxyphenyl)-1H-pyrazolo[3,4-d]pyrimidin-1-yl)ethyl)-3-phenylquinazolin-4(3H)-one]
- IC50 (CK1ε): 88 nM

SMILES: CC(c1nc2ccccc2c(=O)n1-c1ccccc1)n1nc(-c2ccc(OC3CC3)c(F)c2)c2c(N)ncnc21 (centres unmarked) [Compound B, reference compound]
- IC50 (CK1ε): 2710 nM

SMILES: COc1ccc(-c2nn([C@@H](C)c3nc4cccc(Cl)c4c(=O)n3-c3cccnc3)c3ncnc(N)c23)c(F)c1F [II-B-2a, (S)-2-(1-(4-amino-3-(2,3-difluoro-4-methoxyphenyl)-1H-pyrazolo[3,4-d]pyrimidin-1-yl)ethyl)-5-chloro-3-(pyridin-3-yl)quinazolin-4(3H)-one]
- IC50 (CK1ε): 202 nM

SMILES: COc1ccc(-c2nn([C@H](C)c3nc4ccccc4c(=O)n3-c3ccccc3)c3ncnc(N)c23)c(F)c1F [II-A-1b, (R)-2-(1-(4-amino-3-(2,3-difluoro-4-methoxyphenyl)-1H-pyrazolo[3,4-d]pyrimidin-1-yl)ethyl)-3-phenylquinazolin-4(3H)-one]
- IC50 (CK1ε): 484 nM

SMILES: COc1ccc(-c2nn(C(C)c3nc4cccc(Cl)c4c(=O)n3N3CCCCC3)c3ncnc(N)c23)c(F)c1F (centres unmarked) [II-C-5, 2-(1-(4-amino-3-(2,3-difluoro-4-methoxyphenyl)-1H-pyrazolo[3,4-d]pyrimidin-1-yl)ethyl)-5-chloro-3-(piperidin-1-yl)quinazolin-4(3H)-one]
- IC50 (OCI-LY10 cells): 307 nM
- IC50 (CK1ε): 299 nM

SMILES: CCOc1ccc(-c2nn(C(C)c3nc4ccccc4c(=O)n3-c3ccccc3)c3ncnc(N)c23)c(F)c1F (centres unmarked) [II-A-3, 2-(1-(4-amino-3-(4-ethoxy-2,3-difluorophenyl)-1H-pyrazolo[3,4-d]pyrimidin-1-yl)ethyl)-3-phenylquinazolin-4(3H)-one]
- IC50 (CK1ε): 232 nM

SMILES: CC(C)Oc1ccc(-c2nn(C(C)c3nc4cccc(F)c4c(=O)n3-c3ccccc3)c3ncnc(N)c23)cc1F (centres unmarked) [Compound D, reference compound]
- IC50 (OCI-LY10 cells): 746 nM
- IC50 (CK1ε): 1290 nM

SMILES: CC(C)Oc1ccc(-c2nn(C(C)c3nc4ccccc4c(=O)n3-c3ccccc3)c3ncnc(N)c23)cc1F (centres unmarked) [Compound A, reference compound]
- IC50 (CK1ε): 1730 nM

SMILES: COc1ccc(-c2nn(C(C)c3nc4ccccc4c(=O)n3-c3ccccc3)c3ncnc(N)c23)c(F)c1Cl (centres unmarked) [II-A-5, 2-(1-(4-amino-3-(3-chloro-2-fluoro-4-methoxyphenyl)-1H-pyrazolo[3,4-d]pyrimidin-1-yl)ethyl)-3-phenylquinazolin-4(3H)-one]
- IC50 (CK1ε): 386 nM

— patent US20220251092A1, “CASEIN KINASE 1EPSILON INHIBITOR, PHARMACEUTICAL COMPOSITION AND APPLICATION THEREOF” (HANGZHOU HEALZEN THERAPEUTICS CO., LTD., priority 2019, published 2022)
